Data published in US20160367620A1, “GLUTATHIONE” (priority 2015, published 2016).
“And” between values parts separate entries of the source, which are not always exact repeats. Identical values can stand only once. Like-named read-outs stand apart in the source and are kept apart here.

Experiments:
topoisomerase II = settings: cited from earlier work
HIV-1 [1] = settings: human macrophages, cited from earlier work
8E5 cells = settings: HIV gene expression, low GSH-peroxidase activity; cited from earlier work
[2] = human, in vivo, iv
Source text: The kinetics and the effect of glutathione on plasma and urine sulfhydryls were studied in ten healthy human volunteers.

[3] = system: Peripheral Blood Mononuclear Cells (PBMC's)
Protocol: A total of 10,000 glutathione assays were performed.
The Phase I/II data, was based on approximately 10,000 glutathione assays of peripheral blood mononuclear cells (PBMC's) of HIV positive people given the drug regimen.
The study detailed in Appendix B administered the glutathione to HIV infected, otherwise healthy males between 18 and 65, with CD4+ cell counts above 500, not on any other medications.
24 HIV positive people received glutathione in a clinical trial. The first dose of one gram was taken at 0 time, or 10:00 a.m., and the second dose at 3 hours, or 1:00p.m. A baseline was measured two weeks earlier, on the same patient. A temporary intravenous catheter was in place for 7 hours to permit frequent blood sampling at the numerous time points.

HIV [4] = settings: 75 mg/kg in two equally divided doses
human IL-4 production = settings: stimulated peripheral blood T cells, Th0- and Th2-like T cell clones; cited from earlier work
NFκB and COX-2 = settings: cited from earlier work
microglial cells = settings: NO and superoxide generated via iNOS and NADPH-oxidase; cited from earlier work
Mouse [5] = settings: cited from earlier work
[6] = human, in vivo, cited from earlier work
[7] = human, in vivo, po, 15 mg/kg; cited from earlier work
HIV-1 [8] = settings: cited from earlier work; for persistence of anti-HIV-1 effect in culture: single pulse exposure, monocyte/macrophages in vitro
cytotoxic T-lymphocytes = settings: mouse, injection of GSH on the third day post immunization; cited from earlier work
[9] = system: Concanavalin A stimulated proliferation of splenocytes; settings: rats, dietary GSH supplementation; cited from earlier work
[10] = system: high-affinity component of mitochondrial glutathione transport; settings: stimulated by ATP; cited from earlier work
[11] = i.v. GSH coadministration; cited from earlier work
[12] = system: glucose-induced insulin secretion; settings: infusion 10 mg/min for 120 min, cited from earlier work
[13] = cited from earlier work
[14] = 1,200 mg/day i.v.; cited from earlier work
guinea pigs = settings: ascorbate deficient guinea pigs, 3.75 mmol/kg daily (1,152 mg/kg daily) in three divided doses; cited from earlier work
hepatocellular carcinoma = settings: 5 g oral per day, two female patients who survived 1 year; cited from earlier work
[15] = cited from earlier work; remark: listed apart in the source
Mouse [16] = settings: pretreatment; cited from earlier work
[17] = system: mouse neuroblastoma cells; settings: coadministration; cited from earlier work
[18] = rat, plasma; cited from earlier work
[19] = system: human immunodeficiency virus (HIV) expression; settings: U1 cells; cited from earlier work
[20] = system: human venous endothelial cells and rat aortic smooth muscle cells; settings: cited from earlier work
monocyte-macrophages = settings: by conjugation of HNE; cited from earlier work
HIV [21] = settings: chronically infected cells, exogenous GSH; cited from earlier work
herpes viruses = settings: cell culture, extracellular glutathione; cited from earlier work
RPE cells = settings: GSH supplemented in the medium; cited from earlier work
[22] = system: murine macrophage J774 cells; settings: exposure to the NO-releasing compound; cited from earlier work
NFκB = settings: Jurkat cells, various concentrations; cited from earlier work
HIV-1 LTR = settings: Jurkat cells; cited from earlier work
HUVEC and QG90 cell = settings: pretreatment of HUVEC, IL-1 induced; cited from earlier work
Mouse [23] = settings: subcutaneous injection; cited from earlier work
P-selectin = settings: human endothelial cells; cited from earlier work

## O=[N+]([O-])c1ccc(SSc2ccc([N+](=O)[O-])cn2)nc1 [2,2′ dithiobis (5-nitropyridine)]
Topoisomerase II
  topoisomerase II-mediated DNA cleavage: caused topoisomerase II-mediated DNA cleavage

## CCCCS(=N)(=O)CCC(N)C(=O)O (centres unmarked) [BSO, buthionine sulfoximine]
HIV-1 [1]
  HIV yield in the supernatant: significantly increased

## CCCCCC(/C=C/C=C\C/C=C\C/C=C\CCCC(=O)O)OO (centres unmarked) [Example 15-HPETE, 15-hydroperoxy eicosatetraenoic acid]
8E5 cells
  increase in sensitivity of 8E5 cells to killing: 10 fold

## N[C@@H](CCC(=O)N[C@@H](CS)C(=O)NCC(=O)O)C(=O)O [GSH, gamma-glutamyl-cysteinyl-glycine]
[2]
  half-life: 14.1-9.2 minutes
[3]; PBMC's of HIV positive people
  intracellular glutathione insufficiency: correction of the intracellular glutathione insufficiency was evident
[3]; in vivo
  dose dependence of PBMC glutathione: dose response relationship
  safety: no evidence of toxicities
[3]; male, human, in vivo, po
  absorption and distribution within the PBMC completed: 60 min
  share absorbed and intracellular: 80%
  start of distribution into PBMC's / absorption after oral ingestion: ≤ 0.5 h
HIV [4]; four far advanced AIDS patients who followed the regimen
  survival after starting on GSH: 3 years
HIV [4]; four patients
  CD4+ cell counts: did not restore their CD4+ cell counts to any extent
Human IL-4 production
  human IL-4 production: decreased in a dose-dependent manner
NFκB and COX-2
  activation of NFκB and COX-2 by H. pylori infection: inhibited
Microglial cells
  peroxynitrite formation: significantly decreased peroxynitrite formation
HIV-1 [1]; exogenous GSH
  production of p24 gag protein and virus infectivity: strongly suppressed
Mouse [5]; Intramuscular
  LD50: 4000 mg/kg
Mouse [5]; Intraperitoneal
  LD50: 4020 mg/kg and 6815 mg/kg
Mouse [5]; Intravenous
  LD50: 2238 mg/kg
Mouse [5]; Oral
  LD50: 5000 mg/kg
Mouse [5]; Subcutaneous
  LD50: 5000 mg/kg
[6]; iv
  volume of distribution of exogenous glutathione: 176-107 MI/Kg
[6]
  plasma concentration of total cyst(e)ine: decreased
[7]
  rise of plasma glutathione levels over the basal concentration: 1.5-10 fold
HIV-1 [8]; in vitro
  HIV-1 expression in peripheral blood mononuclear cells (PBMC): blocked or substantially reduced
  cellular toxicity in monocyte/macrophages: without producing detectable cellular toxicity
HIV-1 [8]; infected monocytes, intracellular glutathione raised to the high end of the normal range
  duration of suppression of HIV production: about 35 days
HIV-1 [8]; single pulse exposure of HIV-1-infected monocyte/macrophages
  HIV-1 p24 antigen levels and reverse transcriptase activity: sustained, concentration-dependent decrease
HIV-1 [8]
  persistence of anti-HIV-1 effect in culture: at least 35 days
HIV-1 [8]; listed as glutathione
  persistence of anti-HIV-1 effect in culture: 35 days
Cytotoxic T-lymphocytes
  augmentation of cytotoxic activity: 5 fold
[9]
  age-associated decline of immune response: reverse age-associated decline of immune response
[10]
  V max: approximately 0.5 n mol/min per mg of protein
[11]
  nephrotoxicity of cisplatin and/or cyclophosphamide combination therapy: reduces associated nephrotoxicity
[12]
  insulin clearance and action: No effect
[12]; patients with IGT
  glucose-induced insulin secretion: significantly potentiated glucose-induced insulin secretion
[13]; 1,844 mg i.v. bolus, hypertensive patients and non-hypertensive diabetics
  systolic and diastolic blood pressure: rapid and significant decrease in both systolic and diastolic blood pressure
[13]; 1,844 mg i.v. bolus, normal healthy subjects
  blood pressure: no effect
[13]; 1,844 mg i.v. bolus
  return of blood pressure to baseline: ≤ 30 min
[13]; 3,699 mg dose, normal subjects
  blood pressure values: significant decrease in the blood pressure values in normal subjects
[14]
  hematologic parameters (hematocrit, hemoglobin, blood count) compared to baseline: significantly increase studied hematologic parameters
Guinea pigs
  toxicity: toxic
Hepatocellular carcinoma
  tumor growth: regression or stagnation of their tumor growth
[15]; 3 grams daily for three months, 46 AIDS patients
  benefit: no benefit was conclusively demonstrated
[15]; human, in vivo
  adverse effects: No significant GSH-related adverse effects were reported
Mouse [16]
  morphine-induced lethality: protects against morphine-induced lethality
[17]
  deleterious effects of methylmercury: largely prevented
[18]
  share of the remaining 30% as GSSG: 9.5%
  share of the remaining 30% as the mixed disulfide with cysteine: 62.6%
[19]
  cytotoxic or cytostatic effects: absence of cytotoxic or cytostatic effects
  induction of HIV expression mediated by PMA, TNF-α, or IL-6: suppressed in a dose-dependent fashion
[20]
  peroxynitrite induced suppression of mitochondrial respiration, nitrotyrosine formation, protein oxidation, DNA single strand breakage: attenuated
monocyte-macrophages
  macrophage death: protected against macrophage death
HIV [21]
  virus infectivity, budding and release of virus particles: strongly suppresses
Herpes viruses
  reproduction of herpes viruses: inhibited or reduced
RPE cells
  growth of RPE cell cultures: thrive

## CCN1C(=O)C=CC1=O [NEM, N-ethyl maleimide]
Topoisomerase II
  topoisomerase II-mediated DNA cleavage: caused topoisomerase II-mediated DNA cleavage

## CC(=O)N[C@H](C(=O)O)C(C)(C)SN=O [SNAP, S-nitroso-N-acetyl penicillamine]
[22]
  viability of macrophages: diminished

## N/C(=N\O)c1cc(O)c(O)c(O)c1 [TD, Trimidox]
NFκB
  TNF-α-induced NFκB binding: inhibited
HIV-1 LTR
  induction of HIV-1 LTR-mediated gene expression by TNF-α and Tat: significantly suppressed

## CC(=O)Oc1ccccc1C(=O)O [aspirin]
HUVEC and QG90 cell
  cell-to-cell attachment of cancer cells to HUVEC: efficiently blocked the cell-to-cell attachment in a dose-dependent manner

## CN1CC[C@]23c4c5ccc(O)c4O[C@H]2C(=O)C=C[C@H]3[C@H]1C5 [morphinone]
Mouse [23]
  toxicity relative to morphine: 9 times

## CC(=O)CCCCn1c(=O)c2c(ncn2C)n(C)c1=O [pentoxyphillin]
HUVEC and QG90 cell
  cell-to-cell attachment of cancer cells to HUVEC: efficiently blocked the cell-to-cell attachment in a dose-dependent manner

## O=C([O-])c1ccccc1O.[Na+] [sodium salicylate]
P-selectin
  IL-4 induced expression of P-selectin: inhibited

## glutathione ester [GSE]
[19]
  induction of HIV expression mediated by PMA, TNF-α, or IL-6: suppressed in a dose-dependent fashion
